Measurements: US20240076347A1, “METHODS FOR PREVENTING FUNGAL INFECTIONS” (Cidara Therapeutics, Inc., priority 2016, published 2024)
≈ marks a conversion by molar mass, not a printed value. Read-outs that look alike come from different tables or passages of the source. Numbered stars: 1 amine (or outer) side, 2 acyl side, 3 side chain; on linkers, the order of the positions; unused ones are H or OH. Bridge positions count the residues as written; N and C are the ends. Square brackets hold non-standard residues; d marks the D form. Peptide text beside a SMILES is read from it. * marks the point of attachment. pTerphenylCO(4''-OnC5H11) = CCCCCOc1ccc(-c2ccc(-c3ccc(C(=O)*)cc3)cc2)cc1; Orn(4R-OH,5R-OH) = O=C([C@H](C[C@@H](O)[C@@H](O)N[*:3])N[*:1])[*:2]; hTyr(3S-OH,4S-OH) = N[C@H](C(=O)O)[C@H](O)[C@@H](O)c1ccc(O)cc1; Pro(3S-OH,4S-Me) = C[C@H]1CN[C@H](C(=O)O)[C@H]1O; Hyp = O=C(O)[C@@H]1C[C@@H](O)CN1

Legend:
[1] = system: A. fumigatus (ATCC 13073); test: Disseminated infection of neutropenic ICR mice, prophylaxis, survival; format: in vivo, Aspergillus fumigatus; conditions: 3 mg/kg IP 1 hr after infection
Protocol: (§1) Inoculum Preparation. A. fumigatus (ATCC 13073) growth was taken from 96 hr potato dextrose agar (PDA) and re-suspended in 0.1% Tween 20. The culture was resuspended in 1 mL cold PBS (>1.0×10^8 CFU/mL, OD620 2.3-2.8). The culture was then diluted in PBS to final cellular densities of 2.0×10^5 CFU/mL. The actual colony counts were determined by plating dilutions on PDA plates to confirm inoculation concentration. The actual inoculum count was 1.85×10^5 CFU/mL.
A. fumigatus (ATCC 13073) disseminated infection (IV). Groups of 6 female ICR mice weighing 22±2 g were used. Animals were immunosuppressed by three intraperitoneal (IP) injections of cyclophosphamide (the first at 6 mg/mouse 3 days before inoculation, the second and third at 2 mg/mouse on Day 1 then Day 4 after inoculation). On Day 0, animals were inoculated (0.1 mL/mouse) by intravenous (IV) injection into the tail vein with A. fumigatus (ATCC 13073), 1.85×10^4 CFU per mouse. CD101 at 5, 10 and 20 mg/kg as prophylaxis was administered subcutaneously (SC) once starting 5, 3 or 1 day before inoculation. […]
A 50 percent or more (≥50%) increase in the survival rate compared to the vehicle control group indicates significant anti-infective activity. The health observations including body weight, hunched posture, ruffled fur, immobility and hypothermia were recorded daily for 14 days. Animals found moribund were to be humanely sacrificed with CO2 asphyxiation in the study.

[2] = system: A. fumigatus (ATCC 13073); test: Disseminated infection of immune competent DBA/2 mice, prophylaxis, survival; format: in vivo, Aspergillus fumigatus; conditions: 3 mg/kg IP 1 hour after infection
Protocol: as §1, with “A.” for “Inoculum Preparation. A.”, “hour” for “hr”, “1.0×10^7” for “2.0×10^5”, “1.30×10^7” for “1.85×10^5”
Groups of 6 immune competent female DBA/2 mice weighing 18±2 g were used. On Day 0, animals were inoculated (0.1 mL/mouse) by intravenous (IV) injection into the tail vein with A. fumigatus (ATCC 13073), 1.30×10^6 CFU per mouse. CD101 at 3, 10 and 30 mg/kg as prophylaxis was administered subcutaneously (SC) once starting 5, 3 or 1 day before inoculation. In addition, CD101 at 3 mg/kg SC and the reference, amphotericin B, at 3 mg/kg by intraperitoneal (IP) injection were administered one hour after infection (See Table 2).
A 50 percent or more (≥50%) increase in the survival rate compared to the vehicle control group indicates significant anti-infective activity. The health observations including body weight, hunched posture, ruffled fur, immobility and hypothermia were recorded daily for 14 days.

Candida auris = test: Murine model of disseminated candidiasis (immunosuppressed CD-1 mice), treatment; format: in vivo; conditions: 0.3 mg/kg IP, 2 doses; Day 14
Protocol: Female 6-8 week old CD-1 mice were immunosuppressed with cyclophosphamide (200 mg/kg) 3 days prior to infection and 150 mg/kg 1 day post-infection. On the day of infection, mice were inoculated with 3×10^7 C. auris blastospores via the lateral tail vein. Mice were randomized into 5 groups (n=5 for colony forming units (CFU) and n=10 for survival): CD101 20 mg/kg administered by intraperitoneal (IP) injection, fluconazole 20 mg/kg administered per os (PO), amphotericin B 0.3 mg/kg IP, and a vehicle control. Treatments were administered 2 hours post-infection (Day 1) and again on Day 4 of the study for a total of 2 doses. Mice were monitored daily and a survival curve was generated. CFU groups were sacrificed on Day 8 of the study. One kidney was removed from each mouse, homogenized, plated on potato dextrose agar (PDA), and incubated at 35° C. for 2 days to determine CFU. The remaining survival mice were monitored until the end of the study (Day 14).

C. glabrata = test: In vitro susceptibility testing (CLSI M27-A3); format: cell-based, Candida glabrata; conditions: Nakaseomyces glabratus, 24 h
Protocol: (§2) Strains. Ten clinical Candida strains were used for the in vivo treatment studies, including four C. albicans, three C. glabrata, and three C. parapsilosis strains (Table 18). This group was selected to encompass phenotypic variability in susceptibility to triazoles and echinocandins and based on similar fitness in the animal model as defined by the amount of growth in control animals over 24 h. The organisms were maintained, grown, and quantified on Sabouraud's dextrose agar (SDA) plates.
(§3) In vitro susceptibility testing. All isolates were tested in accordance with the standards in CLSI document M27-A3. The MICs were determined visually after 24 h of incubation as the lowest concentration of drug that causes a significant diminution (≥50%) of growth compared to controls. MICs were determined on three separate occasions in duplicate.

C. albicans = test: In vitro susceptibility testing (CLSI M27-A3); format: cell-based; conditions: Candida albicans, 24 h
Protocol: as §2, §3

C. parapsilosis = test: In vitro susceptibility testing (CLSI M27-A3); format: cell-based, Candida parapsilosis; conditions: Lodderomyces parapsilosis, 24 h
Protocol: as §2, §3

In the case of `C[C@@H]1[C@H](O)[C@@H](C)/C=C/C=C/C=C/C=C/C=C/C=C/C=C/[C@H](O[C@@H]2O[C@H](C)[C@@H](O)[C@H](N)[C@@H]2O)C[C@@H]2O[C@](O)(C[C@@H](O)C[C@@H](O)[C@H](O)CC[C@@H](O)C[C@@H](O)CC(=O)O[C@H]1C)C[C@H](O)[C@H]2C(=O)O` [amphotericin B, reference compound], the 14-day survival [1] is reported as “significant increase in the 14-day survival”, the 14-day survival [2] is reported as “significant increase in the 14-day survival” and the “percent survival at the end of the study” value (Candida auris) is reported as 30%.

For `CCCCCOc1ccc(-c2ccc(-c3ccc(C(=O)N[C@H]4C[C@@H](O)[C@@H](O)NC(=O)[C@@H]5[C@@H](O)[C@@H](C)CN5C(=O)[C@H]([C@@H](C)O)NC(=O)[C@H]([C@H](O)[C@@H](O)c5ccc(O)cc5)NC(=O)[C@@H]5C[C@@H](O)CN5C(=O)[C@H]([C@@H](C)O)NC4=O)cc3)cc2)cc1` [Anidulafungin, anidulafungin, reference compound] ({pTerphenylCO(4''-OnC5H11)}-[Orn(4R-OH,5R-OH)]T[Hyp][hTyr(3S-OH,4S-OH)]T[Pro(3S-OH,4S-Me)]; lactam 1-C), the MIC (C. glabrata; strain 5592, read-out: MIC) was 0.06 µg/mL (≈ 0.0526 µM), the MIC (C. glabrata; strain 10956 (FKS2_HS1_F659V)) was 1 µg/mL (≈ 0.877 µM) and the MIC (C. glabrata; strain 35315, read-out: MIC) was 0.25 µg/mL (≈ 0.219 µM). The MIC (C. albicans; strain 98-17) was 0.03 µg/mL (≈ 0.0263 µM), the MIC (C. albicans; strain 98-210) was 0.015 µg/mL (≈ 0.0132 µM) and the MIC (C. albicans; strain 580) was 0.015 µg/mL (≈ 0.0132 µM). For the same molecule, the MIC (C. albicans; strain K-1) was 0.015 µg/mL (≈ 0.0132 µM), the MIC (C. parapsilosis; strain 20423.072) was 1 µg/mL (≈ 0.877 µM) and the MIC (C. parapsilosis; strain 20477.048) was 2 µg/mL (≈ 1.75 µM). It also gave an MIC (C. parapsilosis; strain 20519.069) of 4 µg/mL (≈ 3.51 µM).
